Publication PMC10104742, “The Determination of Polymyxin B in Critically Ill Patients by the HPLC-MS/MS Method” (International Journal of Analytical Chemistry, 2023)
Positions of bridges follow the written chain, without caps; N, C: chain ends. Non-standard residues stand in square brackets, D forms with d. Residues, ends and D or L forms follow the SMILES beside them. *: point of attachment. X1 = CC[C@H](C)CCCCC(=O)*; Dab = NCC[C@H](N)C(=O)O

Tests used:
[1] = Stability of PB in plasma QC samples (short-term, freeze-thaw, long-term); assay type: in vitro ADME, human; details: for Stability of the sample (in words): human plasma sample
Method: Blank plasma (190 μL) and 10 μL working solution were mixed to prepare calibration curves of 8000, 6000, 5000, 2400, 1200, 600, 300, and 100 ng/ml for PB1/PB1-I, and 948.5, 711.4, 592.8, 284.6, 142.3, 71.1, 35.6, and 11.9 ng/mL for PB2/PB3. Similar to the QC standards, for PB1/PB1-I, the low QC (QCL), medium QC 1 (QCM1), medium QC 2 (QCM2), and high QC (QCH) were 200, 1000, 4000, and 7000 ng/ml, respectively. For PB2/PB3, QC standards were 23.7, 118.6, 474.3, and 830.0 ng/ml. First, a 100 μL calibration sample or QC sample was removed; 10 μL IS solution, 200 μL ACN with 0.1% FA (v/v), and 0.2% TFA (v/v/v) were added successively. The samples were vortexed for 2 min to make precipate the protein fully, then centrifugated at 18800 g at 4 ℃ for 15 min. About 200 μL of the supernatant was sucked and transferred into 96-well plates for analysis.
(§1) Volume of 200 μL ACN with 0.2% TFA and 0.1% FA was added to a 100 μL plasma sample containing 10 μL IS solution, vortexed for 2 min, and centrifugated at 18800 g at 4°C for 15 min. The supernatant was then transferred to a 96-well plate for analysis.
(§2) QC samples (QCL, QCM1, QCM2, and QCH) were used to investigate the stability of the stock solutions, working solutions, and samples. Each QC was set with three parallels. The stability of plasma samples stored at room temperature (25°C) for 4 h, at 4°C in a refrigerator for 24 h, at −20°C for 37 days, and at −80°C for 97 days was investigated. The freeze-thaw stability of −20°C and −80°C freeze-thaw cycles at three times each was investigated. The stability of the stock and working solutions stored at −80°C for 97 days was investigated. The accuracy of the quality control sample should be within ±15% of the nominal concentration; the precision should be within 15%.

[2] = Stability of extracted supernatant in the autosampler; assay type: physicochemical; details: extracted supernatant in automatic sampler, 24 h
Method: The LC-MS/MS system consisted of an Agilent 1260 HPLC system equipped with a cooled autosampler (4°C) and an Agilent 6460 electrospray ionization-triple quadrupole mass spectrometer (Agilent Technologies, USA). The chromatographic column was BEH C18 (Waters, 2.1 × 50 mm, 1.7 μm) (Waters Corporation, USA). Ultrapure water was prepared using the Milli-Q Direct 8 (E. Merck, Darmstadt, Germany) water purification system. A Heraeus Multifuge X1R (Thermo Fisher Scientific, USA) high-speed refrigerated centrifuge was used for the centrifugation. SHIMADZU-AUW120D (Shimadzu Corporation, Japan) was used for the weighting.
as §1
QC samples (QCL, QCM1, QCM2, and QCH) were used to investigate the stability of the stock solutions, working solutions, and samples. Each QC was set with three parallels. The stability of plasma samples stored at room temperature (25°C) for 4 h, at 4°C in a refrigerator for 24 h, at −20°C for 37 days, and at −80°C for 97 days was investigated. The freeze-thaw stability of −20°C and −80°C freeze-thaw cycles at three times each was investigated. […]

[3] = Stability of working and stock solutions; assay type: physicochemical
Method: Standard and IS stock solutions were prepared in Milli-Q water containing 1% FA (v/v) at 1 mg/mL (with all substances) and subpacked in EP tubes. Working solutions were diluted from the stock solution. The concentrations of PB1 in the PB1-I's working solution were 160, 120, 100, 48, 24, 12, 6, and 2 μg/mL. The quality control (QC) working solutions were 140, 80, 20, and 4 μg/mL. The IS solution, polymyxin E2, was diluted in 1% FA water to 7.5 μg/mL. All solutions were stored at −80°C.
as §2

CC[C@H](C)CCCCC(=O)N[C@@H](CCN)C(=O)N[C@H](C(=O)N[C@@H](CCN)C(=O)N[C@H]1CCNC(=O)[C@H]([C@@H](C)O)NC(=O)[C@H](CCN)NC(=O)[C@H](CCN)NC(=O)[C@H](CC(C)C)NC(=O)[C@@H](Cc2ccccc2)NC(=O)[C@H](CCN)NC1=O)[C@@H](C)O [PB, Polymyxin B] (X1-[Dab]T[Dab][Dab][Dab][dF]L[Dab][Dab]T; lactam 4-C)
stable: Stability of the sample (in words) ([1]; 4°C, 24 h) | Stability of the sample (in words) ([1]; room temperature, 4 h) | Stability of the sample (in words) ([1]; −20°C, three freeze-thaw cycles) | Stability of the sample (in words) ([1]; −80°C, three freeze-thaw cycles) | Stability of the samples (in words) ([1]; human plasma samples stored at −20°C for 37 days) | Stability of the samples (in words) ([1]; human plasma samples stored at −80°C for 97 days) | Stability of the extracted supernatant (in words) [2] | Stability of the stock solution (in words) ([3]; stock solution at −80°C for 97 days) | Stability of the working solution (in words) ([3]; working solution at −80°C for 97 days) | Stability of the working solution (in words) ([3]; working solution stored at −20°C for 18 days)
